Assay [1] deals with T1, Tyk2 (Homo sapiens, UniProt P29597).
T1 construct: purchased Invitrogen
In words: Tyk2 enzyme inhibition test (LANCE method). It counts as biochemical. The note with it: for inhibition at 1 µM: test compound 1 μM, read-out: Inhibitory rate (%) Tyk2 1 μM. An outline of the steps: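 Recombinant Tyk2 (375 ng/mL stock) with ULight-JAK1 peptide (300 nM stock) and ATP (30 μM stock) in HEPES pH 7.5/MgCl2/EGTA/DTT buffer, 1 h at room temperature. Stopped with EDTA plus Eu-anti-phosphotyrosine antibody; TR-FRET read at 665 nm after 1 h. No-enzyme wells define 100% inhibition.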

Assay [2] has as its target T2, JAK1 (Homo sapiens, UniProt P23458).
T2 construct: purchased Invitrogen
In words: JAK1 enzyme inhibition test (LANCE method). The following applies: for inhibition at 1 µM: test compound 1 μM, read-out: Inhibitory rate (%) JAK1 1 μM; for inhibition at 10 µM: read-out: Inhibitory rate (%) JAK1 10 μM. It counts as biochemical. The essentials: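 TR-FRET (LANCE) kinase assay using JAK1 at 187.5 ng/mL, ULight-JAK1 peptide at 300 nM and ATP at 150 μM, given as solution concentrations before mixing. Buffer was 50 mM HEPES pH 7.5 with 10 mM MgCl2 and 2 mM DTT, and the reaction ran 1 h at room temperature. Eu anti-phosphotyrosine signal at 665 nm was expressed relative to a no-enzyme well, taken as 100% inhibition.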

Where [3] appears, read: test compound 10 μM (Ex. 182-220), beside Tyk2 1 μM.

Like-named read-outs stand apart in the source and are kept apart here.

T2 sequence (P23458 whole entry): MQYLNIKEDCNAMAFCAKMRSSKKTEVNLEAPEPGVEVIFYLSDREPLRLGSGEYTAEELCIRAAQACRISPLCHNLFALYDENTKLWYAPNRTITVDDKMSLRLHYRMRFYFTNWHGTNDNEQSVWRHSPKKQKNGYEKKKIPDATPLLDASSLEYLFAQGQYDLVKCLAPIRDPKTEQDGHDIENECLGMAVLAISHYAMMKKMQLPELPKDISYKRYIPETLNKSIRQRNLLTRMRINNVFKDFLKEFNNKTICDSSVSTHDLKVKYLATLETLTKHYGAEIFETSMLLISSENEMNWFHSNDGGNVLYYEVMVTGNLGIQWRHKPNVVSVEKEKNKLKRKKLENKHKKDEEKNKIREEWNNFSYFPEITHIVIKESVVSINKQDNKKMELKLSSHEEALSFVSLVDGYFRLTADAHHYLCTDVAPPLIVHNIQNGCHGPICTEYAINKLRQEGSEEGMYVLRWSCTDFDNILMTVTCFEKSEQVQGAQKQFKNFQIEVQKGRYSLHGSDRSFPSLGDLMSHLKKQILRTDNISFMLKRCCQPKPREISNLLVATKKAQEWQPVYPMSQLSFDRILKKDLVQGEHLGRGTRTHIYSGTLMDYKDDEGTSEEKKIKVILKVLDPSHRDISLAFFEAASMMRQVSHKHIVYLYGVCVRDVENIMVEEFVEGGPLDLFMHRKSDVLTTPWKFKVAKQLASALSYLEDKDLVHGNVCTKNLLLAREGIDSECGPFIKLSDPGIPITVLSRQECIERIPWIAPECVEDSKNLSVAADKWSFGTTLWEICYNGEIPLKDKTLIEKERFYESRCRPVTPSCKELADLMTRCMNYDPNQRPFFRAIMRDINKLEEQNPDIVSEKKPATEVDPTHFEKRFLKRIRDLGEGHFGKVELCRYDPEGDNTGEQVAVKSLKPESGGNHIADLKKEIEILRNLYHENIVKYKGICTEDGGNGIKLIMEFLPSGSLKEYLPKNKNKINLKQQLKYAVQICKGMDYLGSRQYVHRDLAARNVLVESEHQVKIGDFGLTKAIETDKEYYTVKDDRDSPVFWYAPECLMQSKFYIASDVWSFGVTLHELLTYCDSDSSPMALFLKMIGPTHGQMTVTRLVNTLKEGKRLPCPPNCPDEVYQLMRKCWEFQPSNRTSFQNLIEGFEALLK
T1 sequence (P29597 whole entry): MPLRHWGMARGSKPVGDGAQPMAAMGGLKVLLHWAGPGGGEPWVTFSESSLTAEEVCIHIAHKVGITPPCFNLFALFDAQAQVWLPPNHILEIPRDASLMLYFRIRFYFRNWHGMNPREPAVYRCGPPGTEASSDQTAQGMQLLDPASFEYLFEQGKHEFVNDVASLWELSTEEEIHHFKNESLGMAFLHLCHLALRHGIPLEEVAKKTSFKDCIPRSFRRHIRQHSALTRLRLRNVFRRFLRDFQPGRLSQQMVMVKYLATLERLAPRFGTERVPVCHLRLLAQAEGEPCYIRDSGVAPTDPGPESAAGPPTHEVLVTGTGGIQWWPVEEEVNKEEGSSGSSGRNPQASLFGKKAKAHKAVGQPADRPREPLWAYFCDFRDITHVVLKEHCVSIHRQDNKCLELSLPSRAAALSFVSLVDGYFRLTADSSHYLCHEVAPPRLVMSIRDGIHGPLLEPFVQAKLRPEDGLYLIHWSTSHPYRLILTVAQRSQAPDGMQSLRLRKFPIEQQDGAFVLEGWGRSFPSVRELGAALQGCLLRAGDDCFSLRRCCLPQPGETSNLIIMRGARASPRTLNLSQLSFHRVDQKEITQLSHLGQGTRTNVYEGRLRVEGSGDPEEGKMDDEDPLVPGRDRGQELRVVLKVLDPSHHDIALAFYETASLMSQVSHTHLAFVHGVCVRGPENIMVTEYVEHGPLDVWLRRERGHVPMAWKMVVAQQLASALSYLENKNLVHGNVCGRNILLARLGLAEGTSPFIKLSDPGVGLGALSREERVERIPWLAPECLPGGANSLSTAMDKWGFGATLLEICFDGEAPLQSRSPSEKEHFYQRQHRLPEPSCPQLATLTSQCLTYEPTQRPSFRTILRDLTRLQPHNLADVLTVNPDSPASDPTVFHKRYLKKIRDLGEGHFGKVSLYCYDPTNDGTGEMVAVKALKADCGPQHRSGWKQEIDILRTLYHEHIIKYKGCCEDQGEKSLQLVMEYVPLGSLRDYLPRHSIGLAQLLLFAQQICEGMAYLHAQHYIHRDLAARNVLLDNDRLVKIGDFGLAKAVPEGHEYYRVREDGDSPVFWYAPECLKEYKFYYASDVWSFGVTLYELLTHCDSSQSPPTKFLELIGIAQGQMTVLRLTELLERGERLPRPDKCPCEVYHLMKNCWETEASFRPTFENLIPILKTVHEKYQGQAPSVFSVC

As to `CC[C@@H](COC)n1nc(-c2csc(C(N)=O)c2)c2c(=O)[nH]ccc21` [Example 262, 4-(1-((2S)-1-methoxybutan-2-yl)-4-oxo-4,5-dihydro-1H-pyrazolo[4,3-c]pyridin-3-yl)thiophene-2-carboxamide], the results for the inhibition at 1 µM in assay [1] and in assay [2] were 92% and 97%, respectively.

For `CC(C)(C)n1nc(Nc2cccc(S(N)(=O)=O)c2)c2c(=O)[nH]ccc21` [Example 248, 3-((1-tert-butyl-4-oxo-4,5-dihydro-1H-pyrazolo[4,3-c]pyridin-3-yl)amino)benzenesulfonamide], the inhibition at 1 µM came out at 70% in assay [1] and 96% in assay [2].

On to `COC(=O)c1cc(-c2nn(-c3c(F)cccc3F)c3cc[nH]c(=O)c23)cs1` [Example 36, methyl 4-(1-(2,6-difluorophenyl)-4-oxo-4,5-dihydro-1H-pyrazolo[4,3-c]pyridin-3-yl)thiophene-2-carboxylate], for which the inhibition at 1 µM is 98% in assay [1] and 97% in assay [2].

For `NC(=O)c1cc(-c2nn(C3CCC(=O)CC3)c3cc[nH]c(=O)c23)cs1` [Example 170, 4-(4-oxo-1-(4-oxocyclohexyl)-4,5-dihydro-1H-pyrazolo[4,3-c]pyridin-3-yl)thiophene-2-carboxamide], the figures for the inhibition at 1 µM in assay [1] and in assay [2] were 98% and 99%, respectively.

Consider `O=C1CCCN1Cc1ccc(-c2nn(-c3c(F)cccc3F)c3cc[nH]c(=O)c23)cc1` [Example 275, 1-(2,6-difluorophenyl)-3-(4-((2-oxopyrrolidin-1-yl)methyl)phenyl)-1,5-dihydro-4H-pyrazolo[4,3-c]pyridin-4-one], for which the results for the inhibition at 1 µM in assay [1] and in assay [2] were 98% and 96%, respectively.

As for `NS(=O)(=O)c1ccc(-c2nn(-c3ccccc3C(F)(F)F)c3cc[nH]c(=O)c23)cc1` [Example 212, 4-(4-oxo-1-(2-(trifluoromethyl)phenyl)-4,5-dihydro-1H-pyrazolo[4,3-c]pyridin-3-yl)benzenesulfonamide], the inhibition at 1 µM in assay [1] was 96%. The inhibition at 10 µM in assay [2] (setting [3]) was 99%.

With `NC(=O)c1cc(-c2cn(C3CCCC3)c3c(C(=O)O)c[nH]c(=O)c23)cs1` [Example 61, 3-(5-carbamoyl-3-thienyl)-1-cyclopentyl-4-oxo-4,5-dihydro-1H-pyrrolo[3,2-c]pyridine-7-carboxylic acid], the inhibition at 1 µM in assay [1] turned out to be 41%; in assay [2], 8%.

As for `N#Cc1c[nH]c(=O)c2c(-c3csc(CC(N)=O)c3)cn(C3CCCC3)c12` [Example 97, 2-(4-(7-cyano-1-cyclopentyl-4-oxo-4,5-dihydro-1H-pyrrolo[3,2-c]pyridin-3-yl)-2-thienyl)acetamide], the inhibition at 1 µM in assay [1] was 99%; in assay [2], 97%.

With `NC(=O)Cc1cc(-c2nn(-c3c(F)cccc3F)c3c(Cl)c[nH]c(=O)c23)cs1` [Example 160, 2-(4-(7-chloro-1-(2,6-difluorophenyl)-4-oxo-4,5-dihydro-1H-pyrazolo[4,3-c]pyridin-3-yl)-2-thienyl)acetamide], the inhibition at 1 µM in assay [1] and in assay [2] was 98% in each case.

In the case of `NC(=O)c1cc(-c2nn(-c3c(F)cccc3F)c3c(Br)c[nH]c(=O)c23)cs1` [Example 144, 4-(7-bromo-1-(2,6-difluorophenyl)-4-oxo-4,5-dihydro-1H-pyrazolo[4,3-c]pyridin-3-yl)thiophene-2-carboxamide], the inhibition at 1 µM is 95% in assay [1] and 99% in assay [2].

In the case of `N#CCc1ccc(-c2nn(-c3c(F)cccc3F)c3cc[nH]c(=O)c23)cc1` [Example 39, (4-(1-(2,6-difluorophenyl)-4-oxo-4,5-dihydro-1H-pyrazolo[4,3-c]pyridin-3-yl)phenyl)acetonitrile], the inhibition at 1 µM in assay [1] worked out at 98%; in assay [2], 99%.

With `COCCNC(=O)COc1ccc(-c2nn(-c3c(F)cccc3F)c3c(Cl)c[nH]c(=O)c23)cc1` [Example 217, 2-(4-(7-chloro-1-(2,6-difluorophenyl)-4-oxo-4,5-dihydro-1H-pyrazolo[4,3-c]pyridin-3-yl)phenoxy)-N-(2-methoxyethyl)acetamide], the inhibition at 1 µM in assay [1] came out at 99%. Besides, the inhibition at 10 µM in assay [2] (setting [3]) was 74%.

For `N#Cc1c[nH]c(=O)c2c(-c3csc(C(N)=O)c3)nn(C3CCCC3)c12` [Example 165, 4-(7-cyano-1-cyclopentyl-4-oxo-4,5-dihydro-1H-pyrazolo[4,3-c]pyridin-3-yl)thiophene-2-carboxamide], the results for the inhibition at 1 µM in assay [1] and in assay [2] were 98% and 96%, respectively.

In the case of `NC(=O)c1ccc(F)c(-c2nn(-c3c(F)cccc3F)c3c(Cl)c[nH]c(=O)c23)c1` [Example 269, 3-(7-chloro-1-(2,6-difluorophenyl)-4-oxo-4,5-dihydro-1H-pyrazolo[4,3-c]pyridin-3-yl)-4-fluorobenzamide], the inhibition at 10 µM in assay [1] (test compound 10 μM, read-out: Inhibitory rate (%) Tyk2 10 μM) turned out to be 29%; in assay [2] (test compound 10 μM) it was 24%.

As to `COCCNC(=O)c1ccc(-c2nn(-c3c(F)cccc3F)c3c(Cl)c[nH]c(=O)c23)cc1` [Example 231, 4-(7-chloro-1-(2,6-difluorophenyl)-4-oxo-4,5-dihydro-1H-pyrazolo[4,3-c]pyridin-3-yl)-N-(2-methoxyethyl)benzamide], the inhibition at 1 µM in assay [1] worked out at 99%; in assay [2], 51%.

In the case of `COC(=O)c1cc(-c2nn(C3CCOCC3)c3cc[nH]c(=O)c23)cs1` [Example 21, methyl 4-(4-oxo-1-(tetrahydro-2H-pyran-4-yl)-4,5-dihydro-1H-pyrazolo[4,3-c]pyridin-3-yl)thiophene-2-carboxylate], the inhibition at 1 µM in assay [1] was found to be 95%; in assay [2], 97%.

Take `O=C(NC1CC1)c1cc(-c2nn(C3CCCC3)c3cc[nH]c(=O)c23)cs1` [Example 156, 4-(1-cyclopentyl-4-oxo-4,5-dihydro-1H-pyrazolo[4,3-c]pyridin-3-yl)-N-cyclopropylthiophene-2-carboxamide]: the inhibition at 1 µM in assay [1] and in assay [2] was 100% in each case.

For the compound `N#Cc1cccc(F)c1-n1nc(-c2ccc(N3CCOCC3)cc2)c2c(=O)[nH]ccc21` [Example 305, 3-fluoro-2-(3-(4-(morpholin-4-yl)phenyl)-4-oxo-4,5-dihydro-1H-pyrazolo[4,3-c]pyridin-1-yl)benzonitrile], the inhibition at 1 µM in assay [1] was 99%; in assay [2], 93%.

In the case of `N#Cc1cccc(F)c1-n1nc(-c2cn[nH]c2)c2c(=O)[nH]ccc21` [Example 315, 3-fluoro-2-(4-oxo-3-(1H-pyrazol-4-yl)-4,5-dihydro-1H-pyrazolo[4,3-c]pyridin-1-yl)benzonitrile], the values for the inhibition at 1 µM in assay [1] and in assay [2] were 98% and 97%, respectively.

As for `N#Cc1c[nH]c(=O)c2c1c(C1CCCC1)nn2-c1csc(C(=O)O)c1` [Example 65, 4-(4-cyano-3-cyclopentyl-7-oxo-6,7-dihydro-1H-pyrazolo[3,4-c]pyridin-1-yl)thiophene-2-carboxylic acid], the inhibition at 1 µM turned out to be 76% in assay [1] and 27% in assay [2].

Consider `CNC(=O)c1cc(-c2nn(-c3c(F)cccc3F)c3c(Cl)c[nH]c(=O)c23)cs1` [Example 162, 4-(7-chloro-1-(2,6-difluorophenyl)-4-oxo-4,5-dihydro-1H-pyrazolo[4,3-c]pyridin-3-yl)-N-methylthiophene-2-carboxamide], for which the inhibition at 1 µM in assay [1] and in assay [2] was 99% each time.

For the origin of these results see patent publication US9371320B2, “Heterocyclic compound” (TAKEDA PHARMACEUTICAL COMPANY LIMITED, priority 2012, dated 2016).
